# In PubChem BioAssay AID1963974 (Molecular Pharmacology Branch, DTP, NCI, 2024):
# System: 648629-189-R-J1-PDC spheroids with HUVEC/MSC, viability
# Assay: Anticancer human tumor 648629-189-R-J1-PDC patient-derived bladder carcinoma cell line growth inhibition [PI3K]
# Conditions: for IC50: curve of first compound; for viability, T/C: stronger effect = lower value
# Method in brief: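 Viability of mixed-cell spheroids was determined after exposure to pairwise combinations, one partner being inavolisib, alpelisib, duvelisib or copanlisib. Highest tested concentration matched clinical Cmax where known and 10 microM where not, descending in half-log steps.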
# [1] = second compound 0.00316 µM, first compound 0.0316 µM
# [2] = second compound 0.00316 µM, first compound 0.1 µM
# [3] = second compound 0.00316 µM, first compound 0.316 µM
# [4] = second compound 0.00316 µM, first compound 1 µM
# [5] = second compound 0.00316 µM, first compound 3.16 µM
# [6] = second compound 0.00316 µM, first compound 10 µM
# [7] = second compound 0.01 µM, first compound 0.0316 µM
# [8] = second compound 0.01 µM, first compound 0.1 µM
# [9] = second compound 0.01 µM, first compound 0.316 µM
# [10] = second compound 0.01 µM, first compound 1 µM
# [11] = second compound 0.01 µM, first compound 3.16 µM
# [12] = second compound 0.01 µM, first compound 10 µM
# [13] = second compound 0.0316 µM, first compound 0.0316 µM
# [14] = second compound 0.0316 µM, first compound 0.1 µM
# [15] = second compound 0.0316 µM, first compound 0.316 µM
# [16] = second compound 0.0316 µM, first compound 1 µM
# [17] = second compound 0.0316 µM, first compound 3.16 µM
# [18] = second compound 0.0316 µM, first compound 10 µM
# [19] = second compound 0.1 µM, first compound 0.0316 µM
# [20] = second compound 0.1 µM, first compound 0.1 µM
# [21] = second compound 0.1 µM, first compound 0.316 µM
# [22] = second compound 0.1 µM, first compound 1 µM
# [23] = second compound 0.1 µM, first compound 3.16 µM
# [24] = second compound 0.1 µM, first compound 10 µM
# [25] = second compound 0.316 µM, first compound 0.0316 µM
# [26] = second compound 0.316 µM, first compound 0.1 µM
# [27] = second compound 0.316 µM, first compound 0.316 µM
# [28] = second compound 0.316 µM, first compound 1 µM
# [29] = second compound 0.316 µM, first compound 3.16 µM
# [30] = second compound 0.316 µM, first compound 10 µM
# [31] = second compound 1 µM, first compound 0.0316 µM
# [32] = second compound 1 µM, first compound 0.1 µM
# [33] = second compound 1 µM, first compound 0.316 µM
# [34] = second compound 1 µM, first compound 1 µM
# [35] = second compound 1 µM, first compound 3.16 µM
# [36] = second compound 1 µM, first compound 10 µM
# 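Note: spheroids exposed to agents for seven days before reading.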
# 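Throughout, for viability, T/C: percent of vehicle control luminescence where 100% = DMSO treated spheroids.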
smiles,measurement,setting,value
C#Cc1c(F)ccc2cc(O)cc(-c3ncc4c(N5CC6CCC(C5)N6)nc(OCC56CCCN5CC(F)C6)nc4c3F)c12 (stereo not drawn) + COc1c(OCCCN2CCOCC2)ccc2c3n(c(=NC(=O)c4cnc(N)nc4)nc12)CCN3,IC50,second compound 0.00316 µM,> 10 µM
same,IC50,second compound 0.01 µM,> 10 µM
same,IC50,second compound 0.0316 µM,> 10 µM
same,IC50,second compound 0.1 µM,> 10 µM
same,IC50,second compound 0.316 µM,< 0.0316 µM
same,IC50,second compound 1 µM,< 0.0316 µM
same,"viability, T/C",[1],107%
same,"viability, T/C",[2],100%
same,"viability, T/C",[3],96.5%
same,"viability, T/C",[4],112%
same,"viability, T/C",[5],105%
same,"viability, T/C",[6],94.6%
same,"viability, T/C",[7],112%
same,"viability, T/C",[8],104%
same,"viability, T/C",[9],103%
same,"viability, T/C",[10],113%
same,"viability, T/C",[11],102%
same,"viability, T/C",[12],103%
same,"viability, T/C",[13],89.4%
same,"viability, T/C",[14],91.2%
same,"viability, T/C",[15],85.9%
same,"viability, T/C",[16],92.2%
same,"viability, T/C",[17],79.7%
same,"viability, T/C",[18],91.5%
same,"viability, T/C",[19],67.2%
same,"viability, T/C",[20],61.3%
same,"viability, T/C",[21],58.2%
same,"viability, T/C",[22],60.6%
same,"viability, T/C",[23],65.1%
same,"viability, T/C",[24],57.5%
same,"viability, T/C",[25],24.3%
same,"viability, T/C",[26],21.2%
same,"viability, T/C",[27],18.3%
same,"viability, T/C",[28],19.8%
same,"viability, T/C",[29],17.9%
same,"viability, T/C",[30],5.74%
same,"viability, T/C",[31],3.22%
same,"viability, T/C",[32],2.48%
same,"viability, T/C",[33],2.94%
same,"viability, T/C",[34],3.35%
same,"viability, T/C",[35],3.07%
same,"viability, T/C",[36],0.58%
C=CC(=O)N1CCN(c2nc(=O)n(-c3c(C)ccnc3C(C)C)c3nc(-c4c(O)cccc4F)c(F)cc23)C(C)C1 (stereo not drawn) + COc1c(OCCCN2CCOCC2)ccc2c3n(c(=NC(=O)c4cnc(N)nc4)nc12)CCN3,IC50,second compound 0.00316 µM,> 10 µM
same,IC50,second compound 0.01 µM,> 10 µM
same,IC50,second compound 0.0316 µM,> 10 µM
same,IC50,second compound 0.1 µM,> 10 µM
same,IC50,second compound 0.316 µM,< 0.0316 µM
same,IC50,second compound 1 µM,< 0.0316 µM
same,"viability, T/C",[1],114%
same,"viability, T/C",[2],108%
same,"viability, T/C",[3],114%
same,"viability, T/C",[4],108%
same,"viability, T/C",[5],119%
same,"viability, T/C",[6],99.9%
same,"viability, T/C",[7],94.3%
same,"viability, T/C",[8],91.3%
same,"viability, T/C",[9],101%
same,"viability, T/C",[10],113%
same,"viability, T/C",[11],115%
same,"viability, T/C",[12],79.1%
same,"viability, T/C",[13],83.4%
same,"viability, T/C",[14],81.9%
same,"viability, T/C",[15],104%
same,"viability, T/C",[16],94.6%
same,"viability, T/C",[17],107%
same,"viability, T/C",[18],87.8%
same,"viability, T/C",[19],57.3%
same,"viability, T/C",[20],64.5%
same,"viability, T/C",[21],63.5%
same,"viability, T/C",[22],79.1%
same,"viability, T/C",[23],81.3%
same,"viability, T/C",[24],77.2%
same,"viability, T/C",[25],18.8%
same,"viability, T/C",[26],22.1%
same,"viability, T/C",[27],29%
same,"viability, T/C",[28],25.5%
same,"viability, T/C",[29],38%
same,"viability, T/C",[30],35.3%
same,"viability, T/C",[31],3.7%
same,"viability, T/C",[32],4.13%
same,"viability, T/C",[33],4.67%
same,"viability, T/C",[34],6.38%
same,"viability, T/C",[35],7.09%
same,"viability, T/C",[36],8.01%
CC(Cn1ccc(-c2ccc(C#N)c(Cl)c2)n1)NC(=O)c1cc(C(C)O)[nH]n1 (stereo not drawn) + COc1c(OCCCN2CCOCC2)ccc2c3n(c(=NC(=O)c4cnc(N)nc4)nc12)CCN3,IC50,second compound 0.00316 µM,> 10 µM
same,IC50,second compound 0.01 µM,> 10 µM
same,IC50,second compound 0.0316 µM,> 10 µM
same,IC50,second compound 0.1 µM,> 10 µM
same,IC50,second compound 0.316 µM,< 0.0316 µM
same,IC50,second compound 1 µM,< 0.0316 µM
same,"viability, T/C",[1],94.9%
same,"viability, T/C",[2],92.4%
same,"viability, T/C",[3],97.9%
same,"viability, T/C",[4],96.4%
same,"viability, T/C",[5],83.8%
same,"viability, T/C",[6],73.9%
same,"viability, T/C",[7],100%
same,"viability, T/C",[8],105%
same,"viability, T/C",[9],102%
same,"viability, T/C",[10],92.7%
same,"viability, T/C",[11],89.1%
same,"viability, T/C",[12],74.3%
same,"viability, T/C",[13],96.5%
same,"viability, T/C",[14],93.5%
same,"viability, T/C",[15],95.8%
same,"viability, T/C",[16],90.4%
same,"viability, T/C",[17],86.5%
same,"viability, T/C",[18],70.8%
same,"viability, T/C",[19],65.9%
same,"viability, T/C",[20],64.1%
same,"viability, T/C",[21],77.5%
same,"viability, T/C",[22],65.5%
same,"viability, T/C",[23],64%
same,"viability, T/C",[24],61.5%
same,"viability, T/C",[25],23%
same,"viability, T/C",[26],18.7%
same,"viability, T/C",[27],22.9%
same,"viability, T/C",[28],23.2%
same,"viability, T/C",[29],26.4%
same,"viability, T/C",[30],21.3%
same,"viability, T/C",[31],3.56%
same,"viability, T/C",[32],3.29%
same,"viability, T/C",[33],3.07%
same,"viability, T/C",[34],3.97%
same,"viability, T/C",[35],4.94%
same,"viability, T/C",[36],2.75%
CC1(C)CCC(Nc2ncc(C(F)(F)F)c(-c3c[nH]c4c(P(C)(C)=O)c(C#N)ccc34)n2)CN1 (stereo not drawn) + COc1c(OCCCN2CCOCC2)ccc2c3n(c(=NC(=O)c4cnc(N)nc4)nc12)CCN3,IC50,second compound 0.00316 µM,< 0.0316 µM
same,IC50,second compound 0.01 µM,< 0.0316 µM
same,IC50,second compound 0.0316 µM,< 0.0316 µM
same,IC50,second compound 0.1 µM,< 0.0316 µM
same,IC50,second compound 0.316 µM,< 0.0316 µM
same,IC50,second compound 1 µM,< 0.0316 µM
same,"viability, T/C",[1],25.2%
same,"viability, T/C",[2],25.7%
same,"viability, T/C",[3],31.6%
same,"viability, T/C",[4],31.4%
same,"viability, T/C",[5],41.1%
same,"viability, T/C",[6],4.79%
same,"viability, T/C",[7],28.9%
same,"viability, T/C",[8],25.2%
same,"viability, T/C",[9],25.1%
same,"viability, T/C",[10],30.8%
same,"viability, T/C",[11],35.1%
same,"viability, T/C",[12],3.26%
same,"viability, T/C",[13],26.3%
same,"viability, T/C",[14],23.6%
same,"viability, T/C",[15],26.5%
same,"viability, T/C",[16],27.7%
same,"viability, T/C",[17],31%
same,"viability, T/C",[18],9.93%
same,"viability, T/C",[19],22%
same,"viability, T/C",[20],22.2%
same,"viability, T/C",[21],19.9%
same,"viability, T/C",[22],21.8%
same,"viability, T/C",[23],21%
same,"viability, T/C",[24],1.86%
same,"viability, T/C",[25],15.5%
same,"viability, T/C",[26],13.7%
same,"viability, T/C",[27],13.2%
same,"viability, T/C",[28],16.3%
same,"viability, T/C",[29],12.5%
same,"viability, T/C",[30],1.02%
same,"viability, T/C",[31],6.13%
same,"viability, T/C",[32],5.76%
same,"viability, T/C",[33],6.72%
same,"viability, T/C",[34],8.34%
same,"viability, T/C",[35],7.64%
same,"viability, T/C",[36],1.32%
